Where two headings read alike, the source gives them in different places.
Columns and labels:
Kappa 1 = test: Fluorescent ligand binding, kappa1 opioid receptor; conditions: result in words
kappa1 opioid receptor = test: Radioligand ([^3 H]U69,593) binding, kappa1 opioid receptor; conditions: read-out: IC50 value versus radioligand binding
benzodiazepine receptors = conditions: cited from earlier work
Glycine = test: Fluorescent ligand binding, glycine receptor (strychnine-insensitive); conditions: Table I
Dopamine 2 [1] = test: Fluorescent ligand binding, dopamine 2 (direct fluorescence measurement); conditions: Table I
Dopamine 2 [2] = test: Radioligand binding, dopamine 2; conditions: Table I; read-out: Radiolig. Kd:Ki
NMDA [3] = test: Fluorescent ligand binding, NMDA receptor complex; conditions: Table I
Method: NMDA RECEPTOR COMPLEX LIGAND (spectral shift compound) (PDC 014.041)
(§1) Recommended Assay Conditions:
Incubation buffer: 5 mM Hepes/Tris (pH 7.8 at 25° C.)
Spectra: 335 nm (ex) and 515 nm (em)
(§2) 1. Reconstitution: 10.0 ml of incubation buffer
3. Incubation Time: 2 hours at 25° C.
4. Measure fluorescence intensity: 335 nm (ex) and […]

NMDA [4] = test: Radioligand binding, NMDA; conditions: Table I; read-out: Radiolig. Kd:Ki
Dopamine 1 [5] = test: Fluorescent ligand binding, dopamine 1 (direct fluorescence measurement); conditions: Table I
Dopamine 1 [6] = test: Radioligand binding, dopamine 1; conditions: Table I; read-out: Radiolig. Kd:Ki
Cannabinoid = test: Radioligand binding, cannabinoid receptor; conditions: Table I; read-out: Radiolig. Kd:Ki
Muscarinic-M1 [7] = test: Fluorescent ligand binding, muscarinic-M1 receptor; conditions: Table I
Muscarinic-M1 [8] = test: Radioligand binding, muscarinic-M1; conditions: Table I; read-out: Radiolig. Kd:Ki
Adenosine-A2a [9] = test: Fluorescent ligand binding, adenosine-A2a receptor; conditions: Table I
Method: Recommended Assay Conditions for ADENOSINE-A2A RECEPTOR LIGAND (PDC 018.075)
Incubation buffer: 50 mM Tris-HCL containing 10mM MgCl2, (pH 7.4 at 25° C.)
(§3) Spectra: 492 nm (ex) and 516 nm (em)
as §2
3. Incubation Time: 90 minutes at 25° C.

Adenosine-A2a [10] = test: Radioligand binding, adenosine-A2a; conditions: Table I; read-out: Radiolig. Kd:Ki
Peripheral Bzd [11] = test: Fluorescent ligand binding, peripheral benzodiazepine receptor; conditions: Table I
Method: PERIPHERAL BENZODIAZEPINE RECEPTOR LIGAND (PDC 018.091)
as §1
Incubation buffer: 50 Nm Tris-Citrate containing […] MgCL2 (pH 7.0 at 4° C.)
as §3, §2

Peripheral Bzd [12] = test: Radioligand binding, peripheral benzodiazepine receptor; conditions: Table I; read-out: Radiolig. Kd:Ki
[13] = density of binding of the ligand
[14] = centri., quench, read-out: Fluores. Kd
[15] = centrifugation, read-out: Fluores. Kd

SMILES: CN(C(=O)Cc1cc(Cl)c(Cl)cc1NC(=O)CCCNC(=O)c1ccc2c(c1)C(=O)OC21c2ccc(O)cc2Oc2cc(O)ccc21)[C@@H]1CCCC[C@H]1N1CCCC1 [1R,2R-trans-4,5-dichloro-2-(4-fluorescein-5-carboxamido)-n-butaniado)-(N-methyl)-2-(1-pyrrolidnyl)-cyclohexyl)benzeneacetamide]
- Measurement using the fluorescence assay (Kappa 1): confirmed the radioligand results
- IC50 (kappa1 opioid receptor; 1R,2R enantiomer): 3230 nM
- IC50 (kappa1 opioid receptor; bound in parentheses): > 1000 nM

SMILES: Cc1nnc2n1-c1ccc(Cl)cc1C(c1ccccc1)=NC2 [Alprazolam, alprazolam]
- specific to nonspecific (signal to noise) binding ratios (benzodiazepine receptors; nonequilibrium and equilibrium binding conditions): high
- affinity for benzodiazepine receptors (benzodiazepine receptors; rat brain membranes, saturable and specific): low nanomolar affinity
- selectivity in vitro for benzodiazepine receptors (benzodiazepine receptors; rat brain): selective and specific ligand

SMILES: NCCCC(=O)O [GABA]
- effect on [^3 H]alprazolam binding (benzodiazepine receptors; rat brain membranes): enhanced

SMILES: O=C(NCCCCCCNc1ccc([N+](=O)[O-])c2nonc12)c1cc(O)c2c(Cl)cc(Cl)cc2n1 [PDC 002.083]
- Bmax (Glycine; [13]): 14.5 pmol/mg prot.
- Kd (Glycine; read-out: Fluores. Kd, centri., quench): 750 nM

SMILES: CCN(CC)CCNC(=O)c1cc(Cl)c(NC(=O)CCCCCNc2ccc([N+](=O)[O-])c3nonc23)cc1OC [PDC 014.036]
- Kd (Dopamine 2 [1]; [14]): 500 nM
- Bmax (Dopamine 2 [1]; [13]): 0.13 pmol/mg prot.
- Ki (Dopamine 2 [2]): 90 nM

SMILES: CN(C)c1cccc2c(S(=O)(=O)NCCCNC(Cc3ccccc3)c3ccccc3)cccc12 (centres unmarked) [PDC 014.041]
- Kd (NMDA [3]; centri., spectral shift, read-out: Fluores. Kd): 1000 nM
- Bmax (NMDA [3]; [13]): 1.9 pmol/mg prot.
- Ki (NMDA [4]): 45 nM

SMILES: O=[N+]([O-])c1ccc(NCCN2CCN(CCCN3c4ccccc4Sc4ccc(C(F)(F)F)cc43)CC2)c2nonc12 [PDC 014.043]
- Kd (Dopamine 1 [5]; [14]): 190 nM
- Bmax (Dopamine 1 [5]; [13]): 69 pmol/mg prot.
- Ki (Dopamine 1 [6]): 11 nM

SMILES: CCCCC/C=C\C/C=C\C/C=C\C/C=C\CCCC(=O)NCCNc1ccc([N+](=O)[O-])c2nonc12 [PDC 014.063]
- Ki (Cannabinoid): 52 nM

SMILES: CCCCC/C=C\C/C=C\C/C=C\C/C=C\CCCC(=O)NCCNS(=O)(=O)c1cccc2c(N(C)C)cccc12 [PDC 014.064]
- Ki (Cannabinoid): 52 nM

SMILES: O=[N+]([O-])c1ccc(NCCN2CCOCC2)c2nonc12 [PDC 018.039]
- Kd (Muscarinic-M1 [7]; [14]): 985 nM
- Bmax (Muscarinic-M1 [7]; [13]): 0.20 pmol/mg prot.
- Ki (Muscarinic-M1 [8]): 1700 nM

SMILES: CCNC(=O)[C@H]1O[C@@H](n2cnc3c(N)nc(NCCc4ccc(CCC(=O)NCCNC(=S)Nc5ccc6c(c5)C(=O)OC65c6ccc(O)cc6Oc6cc(O)ccc65)cc4)nc32)[C@H](O)[C@@H]1O [PDC 018.075]
- Kd (Adenosine-A2a [9]; [15]): 57 nM
- Bmax (Adenosine-A2a [9]; [13]): 2.3 pmol/mg prot.
- Ki (Adenosine-A2a [10]): 15 nM

SMILES: CCC(C)N(C)C(=O)c1cc2ccccc2c(-c2cc(NC(=O)c3ccc4c(c3)C(=O)OC43c4ccc(O)cc4Oc4cc(O)ccc43)ccc2F)n1 (centres unmarked) [PDC 018.091]
- Kd (Peripheral Bzd [11]; [15]): 40 nM
- Bmax (Peripheral Bzd [11]; [13]): 2.3 pmol/mg prot.
- Ki (Peripheral Bzd [12]): 2 nM

— patent US5576436A, “Fluorescent ligands” (Pharmaceutical Discovery Corporation, priority 1994, dated 1996)
